Laboratory results from ChEMBL document CHEMBL4376881, “Toggling Preassembly with Single-Site Mutation Switches the Cytotoxic Mechanism of Cationic Amphipathic Peptides” (J Med Chem, 2020).
One block for each substance: values may come before it. Calls of active or inactive are those of the source. The rule behind the calls is not given here.

Tests used:
[1] = test system: K562; experiment: Cytotoxicity against human K562 cells assessed as reduction in cell viability incubated for 1 hr by MTT assay; assay type: functional, cell-based; settings: K562, 1 h
[2] = test system: HeLa; experiment: Induction of membrane lysis in human HeLa cells assessed as increase in number of enlarged outward budding vesicles at cytotoxic IC50 level incubated for 15 mins by annexin V-FITC and by propidium iodide staining; assay type: functional, cell-based
[3] = test system: HeLa; experiment: Induction of membrane lysis in human HeLa cells assessed as loss of membrane integrity at cytotoxic IC50 level incubated for 15 mins by Propidium iodide staining based confocal laser scanning microscopy relative to control; assay type: functional
[4] = Selectivity index, ratio of HC10 for induction of hemolysis in human erythrocytes assessed as hemoglobin release incubated for 2 hrs by UV absorbance based method to IC50 for cytotoxicity against human HL60 cells assessed as reduction in cell viability incubated for 1 hr by MTT assay
[5] = Drug localization in mitochondria of human HeLa cells using FITC-labeled compound at cytotoxic IC50 level incubated for 30 mins by Mito-tracker red dye based confocal laser scanning microscopy; settings: 0.5 h
[6] = Self aggregation up to 128 uM in PBS buffer by ANS fluorescent probe based aggregate incorporation assay; assay type: physicochemical
[7] = Selectivity index, ratio of HC10 for induction of hemolysis in human erythrocytes assessed as hemoglobin release incubated for 2 hrs by UV absorbance based method to IC50 for cytotoxicity against human K562 cells assessed as reduction in cell viability incubated for 1 hr by MTT assay
[8] = test system: A549; experiment: Cytotoxicity against human A549 cells assessed as reduction in cell viability incubated for 1 hr by MTT assay; assay type: functional, cell-based; settings: A549, 1 h
[9] = test system: HeLa; experiment: Suppression of mitochondrial membrane potential in human HeLa cells at cytotoxic IC50 level incubated for 15 mins by rhodamine 123 dye based flow cytometry; assay type: functional, cell-based
[10] = Self aggregation assessed as formation of nano fibers of varying lengths at 32 uM by atomic force microscopy; assay type: physicochemical
[11] = Selectivity index, ratio of HC10 for induction of hemolysis in human erythrocytes assessed as hemoglobin release incubated for 2 hrs by UV absorbance based method to IC50 for cytotoxicity against human A549 cells assessed as reduction in cell viability incubated for 1 hr by MTT assay
[12] = Selectivity index, ratio of HC10 for induction of hemolysis in human erythrocytes assessed as hemoglobin release incubated for 2 hrs by UV absorbance based method to IC50 for cytotoxicity against human MCF7 cells assessed as reduction in cell viability incubated for 1 hr by MTT assay
[13] = test system: HeLa; experiment: Induction of oxidative stress in human HeLa cells assessed as increase in reactive oxygen species at cytotoxic IC50 level incubated for 15 mins by CellROX deep red reagent based flow cytometry; assay type: functional, cell-based
[14] = test system: HL-60; experiment: Cytotoxicity against human HL60 cells assessed as reduction in cell viability incubated for 1 hr by MTT assay; assay type: functional, cell-based; settings: HL-60, 1 h
[15] = test system: HeLa; experiment: Cytotoxicity against human HeLa cells assessed as reduction in cell viability incubated for 1 hr by MTT assay; assay type: functional, cell-based
[16] = test system: HeLa; experiment: Cytotoxicity against human HeLa cells assessed as reduction in cell viability at 4 degC at 1 to 16 uM incubated for 1 hr by MTT assay; assay type: functional, cell-based
[17] = Drug localization in endoplasmic reticulum of human HeLa cells using FITC-labeled compound at cytotoxic IC50 level incubated for 30 mins by ER-tracker red dye based confocal laser scanning microscopy; assay type: subcellular; settings: 0.5 h
[18] = Induction of hemolysis in human erythrocytes assessed as hemoglobin release incubated for 2 hrs by UV absorbance based method; assay type: cell-based; settings: erythrocyte
[19] = Selectivity index, ratio of HC10 for induction of hemolysis in human erythrocytes assessed as hemoglobin release incubated for 2 hrs by UV absorbance based method to IC50 for cytotoxicity against human HeLa cells assessed as reduction in cell viability incubated for 1 hr by MTT assay
[20] = Drug localization in lysosome of human HeLa cells using FITC-labeled compound at cytotoxic IC50 level incubated for 30 mins by Lysotracker red dye based confocal laser scanning microscopy; assay type: subcellular; settings: 0.5 h
[21] = test system: HeLa; experiment: Induction of apoptosis in human HeLa cells assessed as increase in caspase 3/7 activity at cytotoxic IC50 level using Ac-DEVD- pNA substrate incubated for 15 to 60 mins; assay type: functional, cell-based
[22] = Drug localization in nucleoli of human HeLa cells using FITC-labeled compound at cytotoxic IC50 level incubated for 30 mins by confocal laser scanning microscopy; assay type: subcellular; settings: 0.5 h
[23] = test system: MCF7; experiment: Cytotoxicity against human MCF7 cells assessed as reduction in cell viability incubated for 1 hr by MTT assay; assay type: functional, cell-based; settings: MCF7, 1 h
[24] = Drug localization in cell membrane of human HeLa cells using FITC-labeled compound at cytotoxic IC50 level incubated for 30 mins by confocal laser scanning microscopy; assay type: cell membranes; settings: 0.5 h
[25] = Self aggregation at >8 uM in PBS buffer by ANS fluorescent probe based aggregate incorporation assay; assay type: physicochemical
[26] = test system: HeLa; experiment: Cytotoxicity against human HeLa cells assessed as reduction in cell viability at cytotoxic IC50 in presence of 1.5 to 150 ng/mL sodium heparin incubated for 1 hr by MTT assay; assay type: functional, cell-based

Substance: H-KELKLLKKLLKLLK-OH
IC50 [1]: 2.4 µM
Activity [2]: inactive
Activity [3]: inactive
Selectivity Index [4]: 18.7
Drug uptake [5]: Active
Activity [6]: Not Active
Selectivity Index [7]: 25.7
IC50 [8]: 13.5 µM
Activity [9]: Active
Activity [10]: Not Active
Selectivity Index [11]: 4.58
Selectivity Index [12]: 4.25
Activity [13]: Active
IC50 [14]: 3.3 µM
IC50 [15]: 6.8 µM
Activity [16]: inactive
Drug uptake [17]: Active
HC10 [18]: 61.7 µM
Selectivity Index [19]: 9.13
Drug uptake [20]: Active
Activity [21]: Active
Drug uptake [22]: Active
IC50 [23]: 14.5 µM

Substance: H-KKLKLLKKLLKLLK-OH
IC50 [1]: 1.3 µM
Activity [3]: inactive
Selectivity Index [4]: 11.5
Activity [6]: Not Active
Selectivity Index [7]: 15
IC50 [8]: 3.5 µM
Selectivity Index [11]: 5.53
Selectivity Index [12]: 3.14
IC50 [14]: 1.7 µM
IC50 [15]: 3.4 µM
HC10 [18]: 19.5 µM
Selectivity Index [19]: 5.74
IC50 [23]: 6.2 µM

Substance: H-KLEKLLKKLLKLLK-OH
Activity [3]: inactive
Activity [6]: Not Active
IC50 [15]: 6.1 µM

Substance: H-KLLKLEKKLLKLLK-OH
Activity [6]: Not Active
IC50 [15]: > 64 µM

Substance: H-KLLKLLKKELKLLK-OH
Activity [6]: Not Active
IC50 [15]: > 64 µM

Substance: H-KLLKLLKKLLKLEK-OH
Activity [3]: inactive
Activity [6]: Not Active
IC50 [15]: 21.8 µM

Substance: H-KQLKLLKKLLKLLK-OH
IC50 [1]: 1.8 µM
Activity [3]: inactive
Selectivity Index [4]: 17.8
Activity [6]: Not Active
Selectivity Index [7]: 19.7
IC50 [8]: 6.3 µM
Selectivity Index [11]: 5.59
Selectivity Index [12]: 3.95
IC50 [14]: 2 µM
IC50 [15]: 5.2 µM
HC10 [18]: 35.5 µM
Selectivity Index [19]: 6.77
IC50 [23]: 9 µM

Second part, led by results:

Activity [6]: Active
Substance: H-KLLELLKKLLKLLK-OH
Activity [3]: Active
IC50 [15]: 5.3 µM

Activity [6]: Not Active
Substance: H-KLLKELKKLLKLLK-OH
Activity [3]: inactive
IC50 [15]: 8.6 µM

Activity [6]: Not Active
Substance: H-KLLKLLKKLEKLLK-OH
Activity [3]: inactive
IC50 [15]: 11.2 µM

Activity [6]: Not Active
Substance: H-KLLKLLKKLLKELK-OH
Activity [3]: inactive
IC50 [15]: 5.1 µM

Activity [25]: Dose-dependent effect
Activity [10]: Active
Substance: H-KLLKLLKKLLKLLK-OH
IC50 [1]: 1.4 µM
Drug uptake [24]: Active
Activity [2]: Active
Activity [3]: 50%
Selectivity Index [4]: 0.21
Selectivity Index [7]: 0.37
IC50 [8]: 3.7 µM
Selectivity Index [11]: 0.14
Selectivity Index [12]: 0.12
Activity [26]: Active
IC50 [14]: 2.5 µM
IC50 [15]: 4.6 µM
HC10 [18]: 0.52 µM
Selectivity Index [19]: 0.11
IC50 [23]: 4.3 µM
